Reference: ChEMBL document CHEMBL2057063, “Exogenous fluorescent tracer agents based on pegylated pyrazine dyes for real-time point-of-care measurement of glomerular filtration rate” (Bioorg Med Chem, 2012)

Assays:
[1] = Drug excretion in Sprague-Dawley rat urine administered via tail vein measured after 6 hrs by HPLC analysis; format: ADME; details: iv, read-out: Ae
[2] = Plasma protein binding in rat at 20 uM after 1 hr by HPLC analysis; format: ADME, cell-free; details: read-out: PPB (converted)
[3] = Terminal elimination half life in Sprague-Dawley rat plasma; format: ADME, cell-free; details: read-out: beta t1/2
Rattus norvegicus = organism: Rattus norvegicus; assay: Volume of distribution in Sprague-Dawley rat; format: ADME, organism-based; details: in vivo
[4] = Clearance in Sprague-Dawley rat; format: ADME, organism-based; details: in vivo
[5] = Clearance in Sprague-Dawley rat in presence of 70 mg/kg probenecid administered 10 mins prior to compound treatment; format: ADME, organism-based; design: dose 70 mg/kg; details: in vivo, with probenecid 70 mg/kg
[6] = Terminal elimination half life in Sprague-Dawley rat blood; format: ADME, tissue-based; details: read-out: beta t1/2

| fraction unbound at 1 h, 20 µM [2] | half-life [3] [min] | Vd (Rattus norvegicus) [mL] | clearance [4] [mL/min] | clearance [5] [mL/min] | half-life [6] [min] | Compound | dose excreted at 6 h [1] [%] |
| --- | --- | --- | --- | --- | --- | --- | --- |
| 0.95 | 25 | 64 | 2.8 | 2.7 |  | COCCOCCOCCOCCOCCOCCOCCOCCOCCOCCOCCOCCOCCOCCOCCOCCOCCOCCOCCOCCOCCOCCOCCOCCNC(=O)c1nc(N)c(C(=O)NCCOCCOCCOCCOCCOCCOCCOCCOCCOCCOCCOCCOCCOCCOCCOCCOCCOCCOCCOCCOCCOCCOCCOCCOC)nc1N | 96 |
| 0.97 | 19 | 61 | 3.1 | 3.3 | 21.6 | COCCOCCOCCOCCOCCOCCOCCOCCOCCOCCOCCOCCCNc1nc(C(=O)NCCOCCOCCOCCOCCOCCOCCOCCOCCOCCOCCOCCOC)c(NCCCOCCOCCOCCOCCOCCOCCOCCOCCOCCOCCOCCOC)nc1C(=O)NCCOCCOCCOCCOCCOCCOCCOCCOCCOCCOCCOCCOC | 97 |
| 0.87 |  |  |  |  |  | CCCNc1nc(C(=O)NCCOCCOCCOCCOCCOCCOCCOCCOCCOCCOCCOCCOCCOCCOCCOCCOCCOCCOCCOCCOCCOCCOCCOCCOC)c(NCCC)nc1C(=O)NCCOCCOCCOCCOCCOCCOCCOCCOCCOCCOCCOCCOCCOCCOCCOCCOCCOCCOCCOCCOCCOCCOCCOCCOC | 85 |
| 0.89 |  |  |  |  |  | COCCOCCOCCNc1nc(C(=O)NCCOCCOCCOCCOCCOCCOCCOCCOCCOCCOCCOCCOCCOCCOCCOCCOCCOCCOCCOCCOCCOCCOCCOCCOC)c(NCCOCCOCCOC)nc1C(=O)NCCOCCOCCOCCOCCOCCOCCOCCOCCOCCOCCOCCOCCOCCOCCOCCOCCOCCOCCOCCOCCOCCOCCOCCOC | 96 |
| 0.7 |  |  |  |  |  | COCCOCCOCCOCCOCCOCCOCCOCCCNc1nc(C(=O)NCCOCCOCCOCCOCCOCCOCCOCCOCCOCCOCCOCCOCCOCCOCCOCCOCCOCCOCCOCCOCCOCCOCCOCCOC)c(NCCCOCCOCCOCCOCCOCCOCCOCCOC)nc1C(=O)NCCOCCOCCOCCOCCOCCOCCOCCOCCOCCOCCOCCOCCOCCOCCOCCOCCOCCOCCOCCOCCOCCOCCOCCOC | 92 |
| 0.59 | 31 | 68 |  |  |  | COCCOCCOCCOCCOCCOCCOCCOCCOCCOCCOCCOCCCNc1nc(C(=O)NCCOCCOCCOCCOCCOCCOCCOCCOCCOCCOCCOCCOCCOCCOCCOCCOCCOCCOCCOCCOCCOCCOCCOCCOC)c(NCCCOCCOCCOCCOCCOCCOCCOCCOCCOCCOCCOCCOC)nc1C(=O)NCCOCCOCCOCCOCCOCCOCCOCCOCCOCCOCCOCCOCCOCCOCCOCCOCCOCCOCCOCCOCCOCCOCCOCCOC | 89 |
| 0.61 |  |  |  |  |  | COCCOCCOCCOCCOCCOCCOCCOCCOCCOCCOCCOCCOCCOCCOCCOCCOCCOCCOCCOCCOCCOCCOCCOCCCNc1nc(C(=O)NCCOCCOCCOCCOCCOCCOCCOCCOCCOCCOCCOCCOCCOCCOCCOCCOCCOCCOCCOCCOCCOCCOCCOCCOC)c(NCCCOCCOCCOCCOCCOCCOCCOCCOCCOCCOCCOCCOCCOCCOCCOCCOCCOCCOCCOCCOCCOCCOCCOCCOC)nc1C(=O)NCCOCCOCCOCCOCCOCCOCCOCCOCCOCCOCCOCCOCCOCCOCCOCCOCCOCCOCCOCCOCCOCCOCCOCCOC | 86 |

Second part, the compound before the results:

| Compound | fraction unbound at 1 h, 20 µM [2] | half-life [3] [min] | Vd (Rattus norvegicus) [mL] | clearance [4] [mL/min] | clearance [5] [mL/min] | half-life [6] [min] | dose excreted at 6 h [1] [%] |
| --- | --- | --- | --- | --- | --- | --- | --- |
| O=C(NCC(O)CO)c1nc(NC[C@H](O)CO)c(C(=O)NCC(O)CO)nc1NC[C@H](O)CO (some centres undefined) |  |  |  |  |  |  | 88 |
| COCCOCCOCCOCCNC(=O)c1nc(N)c(C(=O)NCCOCCOCCOCCOC)nc1N | 1 |  |  |  |  |  | 41 |
| COCCOCCOCCOCCOCCOCCOCCOCCNC(=O)c1nc(N)c(C(=O)NCCOCCOCCOCCOCCOCCOCCOCCOC)nc1N | 1 |  |  |  |  |  | 45 |
| COCCOCCOCCOCCOCCOCCOCCOCCOCCOCCOCCOCCNC(=O)c1nc(N)c(C(=O)NCCOCCOCCOCCOCCOCCOCCOCCOCCOCCOCCOCCOC)nc1N | 1 | 20 | 70 |  |  |  | 71 |
| COCCOCCOCCOCCCNc1nc(C(=O)NCCOCCOCCOCCOCCOCCOCCOCCOCCOCCOCCOCCOC)c(NCCCOCCOCCOCCOC)nc1C(=O)NCCOCCOCCOCCOCCOCCOCCOCCOCCOCCOCCOCCOC | 1 |  |  |  |  |  | 86 |
| COCCOCCOCCOCCOCCOCCOCCOCCCNc1nc(C(=O)NCCOCCOCCOCCOCCOCCOCCOCCOCCOCCOCCOCCOC)c(NCCCOCCOCCOCCOCCOCCOCCOCCOC)nc1C(=O)NCCOCCOCCOCCOCCOCCOCCOCCOCCOCCOCCOCCOC | 0.99 |  |  |  |  |  | 87 |
| CNC(=O)c1c(I)c(NC(C)=O)c(I)c(C(=O)[O-])c1I.[Na+] [IOTHALAMATE SODIUM] |  |  | 104 | 2.5 | 2.2 |  | 80 |
| Nc1nc(C(=O)N[C@H](CO)C(=O)O)c(N)nc1C(=O)N[C@H](CO)C(=O)O [RELMAPIRAZIN] |  |  | 83 |  |  |  | 90 |
